In patent US20210284621A1 (priority 2018, published 2021):

Legend:
LPS-induced PBMCs = assay: Inflammatory cytokine release from LPS-induced PBMCs (Luminex); assay type: cell-based, human; details: fold change from LPS-treated PBMCs, compounds 10 μM (DEX 1 μg/ml) 2 h, then LPS 0.1 μg/ml 24 h, negative = reduced; for IL-12 (p70) / L-31: OOR = out of standard curve range
Protocol: Compounds of the invention were assayed for their effect on inflammatory cytokine release from lipopolysaccharides (LPS)-induced PBMCs, isolated from a human blood sample, the results of which are provided in Table 7 as fold change. Exemplary methods for quantifying secretion of inflammatory cytokines in PBMCs are known in the art, for example, as described in Hailer et al., Infection and Immunity. 68(2):752-759 (2000); and Merlini et al., Frontiers in Immunology. 7:614 (2016); each of which is incorporated herein by reference with respect to methods for evaluating cytokine release in PBMCs.
In brief, human blood samples from healthy volunteers were collected and PBMCs were isolated. PBMCs were cultured and each compound was assayed in triplicate at a final concentration of 10 μM for 2 hours. 1 μg/ml dexamethasone (DEX) served as a positive control. LPS was added at a final concentration of 0.1 μg/ml and further incubated for 24 hours. At the end of the incubation, the supernatants were collected and the levels of a panel of secreted cytokines were measured by a Human Magnetic Luminex® assay (R&D). The results in Table 7 are presented as a fold change from LPS-treated PBMCs. Reduced levels are expressed by negative values. OOR denotes values that are out of the standard curve range for the specific cytokine and thus, could not be accurately measured. Cytotoxicity was also determined. Compounds with cytotoxicity ≥50% was considered cytotoxic. Baseline cytotoxicity of untreated PBMCs was 17% and all compounds presented in Table 7 induced cytotoxicity below 25%.

CB1 receptor [1] = biological target: T1, CB1 receptor (Homo sapiens, UniProt P21554); assay: cAMP Assay #2: Hit Hunter cAMP assay, Gi-coupled agonist activity, CB1; assay type: cell-based; design: host or cells: PathHunter cell lines
T1 sequence (P21554 whole entry): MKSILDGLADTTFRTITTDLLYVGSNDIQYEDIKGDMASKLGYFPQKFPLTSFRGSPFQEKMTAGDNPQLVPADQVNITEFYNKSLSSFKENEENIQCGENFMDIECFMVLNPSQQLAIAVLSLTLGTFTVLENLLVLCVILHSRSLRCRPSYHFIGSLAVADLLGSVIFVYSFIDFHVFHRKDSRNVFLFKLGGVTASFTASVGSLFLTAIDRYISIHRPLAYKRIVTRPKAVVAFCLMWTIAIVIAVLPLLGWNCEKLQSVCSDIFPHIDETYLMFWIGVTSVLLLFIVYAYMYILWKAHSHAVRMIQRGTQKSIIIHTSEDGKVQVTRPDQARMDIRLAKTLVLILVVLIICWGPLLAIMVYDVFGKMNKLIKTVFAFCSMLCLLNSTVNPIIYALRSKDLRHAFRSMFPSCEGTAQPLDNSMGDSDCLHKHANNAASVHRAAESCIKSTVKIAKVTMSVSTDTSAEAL
Protocol: (§1) Compounds of the invention were assayed in the Hit Hunter® cAMP assay to determine Gi-coupled agonist activity on the CB1 and CB2 receptors, the results of which are provided in Table 5.
(§2) The Hit Hunter® cAMP assay monitors the activation of a GPCR via Gi and […] secondary messenger signaling in a homogenous, non-imaging assay format using a technology developed by DiscoverX called Enzyme Fragment Complementation (EFC) with β-galactosidase (β-Gal) as the functional reporter. […] ED is fused to cAMP and in the assay competes with cAMP generated by cells for binding to a cAMP-specific antibody. Active β-Gal is formed by complementation of exogenous EA to any unbound ED cAMP. Active enzymes can then convert a chemiluminescent substrate, generating an output signal detectable on a standard microplate reader.
(§3) cAMP Hunter cell lines were expanded from freezer stocks according to standard procedures. Cells were seeded in a total volume of 20 μL into white walled, 384-well microplates and incubated at 37° C. for the appropriate time prior to testing. cAMP modulation was determined using the DiscoverX Hit Hunter cAMP XS+ assay. For Gi agonist activity determination, cells were incubated with sample in the presence of EC80 forskolin to induce response (20 μM and 25 μM in the CB1 and CB2 assays, respectively). Media was aspirated from cells and replaced with 15 μL 2:1 HBSS/10 mM HEPES:cAMP XS+Ab reagent.
(§4) Intermediate dilution of sample stocks was performed to generate 4× sample in assay buffer. 5 μL of 4× compound was added to cells and incubated at 37° C. or room temperature for 30 or 60 minutes. Final vehicle concentration was 1%. Assay signal was generated through incubation with 20 μL cAMP XS+ED/CL lysis cocktail for one hour at room temperature. Microplates were read following signal generation with a PerkinElmer Envision™ instrument for chemiluminescent signal detection. Compound activity was analyzed using CBIS data analysis suite (Chem Innovation, CA). For agonist assays, percentage activity was calculated using the following formula: % Activity=100%×(1−(mean RLU of test sample−mean RLU of Max control ligand)/(mean RLU of vehicle control−mean RLU of Max control ligand). Control ligand was the non-selective CB1/CB2 agonist CP55,940.

CB2 receptor [2] = biological target: T2, CB2 receptor (Homo sapiens, UniProt P34972); assay: cell-based; design: host or cells: cAMP Hunter cell lines
T2 sequence (P34972 whole entry, the tested form may be a part): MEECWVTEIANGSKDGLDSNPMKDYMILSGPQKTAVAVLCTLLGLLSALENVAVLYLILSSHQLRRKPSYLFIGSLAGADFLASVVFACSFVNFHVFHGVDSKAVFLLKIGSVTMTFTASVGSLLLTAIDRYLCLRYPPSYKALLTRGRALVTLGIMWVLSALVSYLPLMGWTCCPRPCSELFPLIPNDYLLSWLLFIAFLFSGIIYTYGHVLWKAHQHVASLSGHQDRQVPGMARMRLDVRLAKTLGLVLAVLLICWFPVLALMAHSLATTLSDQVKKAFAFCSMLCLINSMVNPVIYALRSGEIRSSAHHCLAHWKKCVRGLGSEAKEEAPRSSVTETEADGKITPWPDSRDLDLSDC
How it was run: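 PathHunter β-Arrestin enzyme fragment complementation cells, EA-tagged β-Arrestin and PK-tagged receptor, exposed to compound for 90 to 180 minutes at 37° C. or room temperature, 1% vehicle. Chemiluminescence read 1 h after detection reagent; agonist % activity relative to vehicle and MAX control ligand.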

CB1 receptor [3] = biological target: T1, CB1 receptor; assay: CB1 competitive radioligand binding assay ([3H] SR141716A); design: expressed in transfected cells; host or cells: Chem-1 cells
How it was run: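 Chem-1 cells expressing human recombinant CB1 incubated 90 min at 37° C with 2.0 nM [3H]SR141716A and compound at 0.5 μM (1% DMSO) in HEPES pH 7.4 buffer with MgCl2, CaCl2, 0.2% BSA. Read-out is % inhibition of radioligand binding.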

CB1 receptor [4] = biological target: T1, CB1 receptor; assay: cell-based; design: host or cells: PathHunter cell lines
CB2 receptor [5] = biological target: T2, CB2 receptor; assay: CB2 competitive radioligand binding assay ([3H] WIN-55,212-2); design: expressed in transfected cells; host or cells: CHO-K1 cells
How it was run: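 Single-concentration displacement: 2.4 nM [3H]WIN-55,212-2 competed with 0.05 μM compound (1% DMSO) for 90 min at 37 °C on human CB2 expressed in CHO-K1 cells (HEPES 20 mM, pH 7.0, 0.5% BSA). Result given as % inhibition of bound radioligand.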

CB2 receptor [6] = biological target: T2, CB2 receptor; assay: cAMP Assay #2: Hit Hunter cAMP assay, Gi-coupled agonist activity, CB2; assay type: cell-based; design: host or cells: cAMP Hunter cell lines; details: for CB2 fold selectivity: Hit Hunter cAMP, CB1 EC50 / CB2 EC50
Protocol: as §1, §2, §3, §4

[7] = PathHunter agonist mode, read-out: CB2 Activity (β-Arrestin)
[8] = PathHunter agonist mode, read-out: CB1 Activity (β-Arrestin)

Compound | IL17A (LPS-induced PBMCs) [fold change] | IL-1β (LPS-induced PBMCs) [fold change] | IL-4 (LPS-induced PBMCs) [fold change] | IL-6 (LPS-induced PBMCs) [fold change] | IL-8 (LPS-induced PBMCs) [fold change] | IL-10 (LPS-induced PBMCs) [fold change] | MCP-1 (LPS-induced PBMCs) [fold change] | TNFα (LPS-induced PBMCs) [fold change] | IL-12 (p70) (LPS-induced PBMCs) [fold change] | L-31 (LPS-induced PBMCs) [fold change] | EC50 (CB1 receptor [1]) [nM] | EC50 (CB2 receptor [2]; [7]) [nM] | Ki (CB1 receptor [3]) [nM] | EC50 (CB1 receptor [4]) [nM] | Ki (CB2 receptor [5]) [nM] | Fold Selectivity (CB1/CB2) (CB2 receptor [5]; Table 3, ratio of Ki CB1/CB2) | EC50 (CB2 receptor [6]) [nM] | CB2 fold selectivity (CB2 receptor [6]) | EC50 (CB1 receptor [4]; [8]) [nM] | EC50 (CB2 receptor [2]) [nM]
CCCCCCC(C)(C)c1cc(O)c2c(c1)OC(C)(C)[C@@H]1CC=C(C(=O)NC3(C(F)(F)F)CC3)C[C@@H]21 [Compound 99, (6aR,10aR)-1-hydroxy-N-(1-trifluoromethyl-cyclopropyl)-6,6-dimethyl-3-(2-methyloctan-2-yl)-6a,7,10,10a-tetrahydro-6H-benzo[c]chromene-9-carboxamide] | 1.2 | 1.2 | −1.4 | −2.6 | −1.0 | −7.0 | −3.3 | −1.4 | −1.6 | −1.1 | 19.1 | 1.2 | 8.9 | 32.5 | 2 | 4.5 | 1.3 | 14.9 | – | –
CCCCC(C)(C)c1cc(O)c2c(c1)OC(C)(C)[C@@H]1CC=C(C(=O)O)C[C@@H]21 [Compound 109] | 1.2 | −3.3 | −1.5 | −1.4 | −1.0 | −1.3 | −5.0 | −1.3 | −1.6 | −1.5 | 1220 | 58.1 | > 3000 | – | > 3000 | – | 148 | 8.3 | > 3000 | –
CCCC(C)(C)c1cc(O)c2c(c1)OC(C)(C)[C@@H]1CC=C(C(=O)O)C[C@@H]21 [Compound 110, (6aR,10aR)-1-hydroxy-6,6-dimethyl-3-(2-methylpentan-2-yl)-6a,7,10,10a-tetrahydro-6H-benzo[c]chromene-9-carboxylic acid] | 1.3 | −1.5 | −1.3 | −1.2 | −1.0 | −1.0 | −3.0 | −1.0 | −1.1 | −1.3 | > 3000 | – | > 3000 | – | > 3000 | – | 211 | >14 | > 3000 | 37.4
